These results are taken from patent publication US20110117055A1, “Methods of Treating Hepatitis C Virus with Oxoacetamide Compounds” (priority 2009, published 2011).

For experiment [1], the system named is HCV. The experiment can be described thus: Combination of viral entry inhibitor with HCV protease inhibitor VX-950. It is filed as cell-based. Particulars: fixed ratio based on EC50.
Method: Additional combination studies of Compound 1 and Compound 5 with the HCV NS3 protease inhibitor VX-950 were conducted. Compound 1 and Compound 5 were tested singly and in combination with VX-950. The ratio of the two compounds, based on the compound's EC50, remained fixed across the dosing range. The potential cytotoxicity of individual compounds was assessed with a luminescent ATP-based cell viability assay (Cell Titer-Glo; Promega). Cell culture and luciferase compound assays were performed as previously described in Example 3.
Compound interactions were quantified by the approach described by Chou and Talalay, relying on the median effect principle and the multiple-drug effect equation. […] Isobolograms were generated for each combination tested and were used to determine the additivity, synergism or antagonism of inhibitor combinations. Combination indices (CI) were determined with Calcusyn (Biosoft) for each experiment at the EC50, EC75, and EC90 of the combination. By convention, a CI of <0.9 was considered synergistic, a CI of ≧0.9 or ≦1.1 was considered additive, and a CI of >1.1 was deemed antagonistic. […] Combination indices (CI) were determined with Calcusyn (Biosoft) for each experiment at the EC50, EC75, and EC90 of the combination. By convention, a CI of <0.9 was considered synergistic, a CI of ≧0.9 or ≦1.1 was considered additive, and a CI of >1.1 was deemed antagonistic.
Experiment [2] deals with HCV2aChLuc virus. The experiment can be described thus: In vitro HCVcc entry assay: HCV2aChLuc virus infection of Huh7 cells, Renilla luciferase read-out. Type of experiment: cell-based, HCV genotype 2a. To be noted: for IC50: Hepatitis C virus.

“Also recorded” adds a separate entry of the source. Read-outs that look alike come from different tables or passages of the source.

For `COc1c(NC(=O)C(=O)c2ccc(OCCN3CCOCC3)c3ccccc23)cc(C(C)(C)C)cc1NS(C)(=O)=O` [Compound 5, N-(5-tert-butyl-2-methoxy-3-(methylsulfonamido)phenyl)-2-(4-(2-morpholinoethoxy)naphthalen-1-yl)-2-oxoacetamide], the “effect of combination with VX-950” value in experiment [1] is given as “additive to slightly synergistic effects”. Further, the IC50 in experiment [2] (Huh-7, 72 h, read-out: observed IC50, Huh7 cells co-incubated with HCV2aChRluc virus and compound for 3 days, repeated assays (n>30)) was 0.05 to 0.5 nM; in experiment [2] (Huh-7, read-out: Activity class (IC50), tested according to the method of Example 3) it was less than 5 nM. Also, the “inhibitory effect on HCV2aChLuc viral entry” value in experiment [2] (Huh7 cells, 3 days) is listed as “dose-dependent inhibitory effect; also recorded: dose-dependent inhibition”.

The IC50 is the concentration at which inhibition is half-maximal.
